# Assays:
# pigweed = assay: Test C pre-/postemergence test; type: in vivo, Amaranthus retroflexus
# Summary of the method: (§1)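 Test chemicals were formulated with surfactant in a non-phytotoxic solvent and sprayed both on freshly planted seeds (preemergence) and on 1- to 4-leaf plants of 2–18 cm (postemergence). Flooded-paddy pots received compound directly into 3 cm of standing water, maintained for the test.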
# giant foxtail = assay: Test A pre-/postemergence greenhouse test; type: in vivo, Setaria faberi; conditions: for Plant response rating, Foxtail, Giant: 0 to 100 scale where 0 is no effect and 100 is complete control; for Foxtail, Giant plant response rating: 0 to 100 scale
# Summary of the method: (§2)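 Sowing in loam/sand; same-day pre (directed soil spray) and post (foliar, 1–2 leaf, 2–10 cm) treatment with surfactant-containing non-phytotoxic solvent formulation; ~10 days in greenhouse; eye-scored injury against untreated plants.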
# wheat [1] = assay: Test C pre-/postemergence test; type: in vivo, Triticum aestivum
# Summary of the method: as §1
# morningglory [2] = assay: Test A pre-/postemergence greenhouse test; type: in vivo, Ipomoea spp.; conditions: for Plant response rating, Morningglory: 0 to 100 scale where 0 is no effect and 100 is complete control; for Morningglory plant response rating: 0 to 100 scale
# Summary of the method: as §2
# crabgrass = assay: Test A pre-/postemergence greenhouse test; type: in vivo, Digitaria sanguinalis; conditions: for Plant response rating, Crabgrass, Large: 0 to 100 scale where 0 is no effect and 100 is complete control; for Crabgrass, Large plant response rating: 0 to 100 scale
# Summary of the method: as §2
# yellow nutsedge = assay: Test C pre-/postemergence test; type: in vivo, Cyperus esculentus
# Summary of the method: as §1
# soybean = assay: Test C pre-/postemergence test; type: in vivo, Glycine max
# Summary of the method: as §1
# morningglory [3] = assay: Test C pre-/postemergence test; type: in vivo, Ipomoea coccinea
# Summary of the method: as §1
# corn = assay: Test A pre-/postemergence greenhouse test; type: in vivo, Zea mays; conditions: for Plant response rating, Corn: 0 to 100 scale where 0 is no effect and 100 is complete control; for Corn plant response rating: 0 to 100 scale
# Summary of the method: as §2
# wheat [4] = assay: Test A pre-/postemergence greenhouse test; type: in vivo, Triticum aestivum; conditions: for Plant response rating, Wheat: 0 to 100 scale where 0 is no effect and 100 is complete control; for Wheat plant response rating: 0 to 100 scale
# Summary of the method: as §2
# catchweed bedstraw = assay: Test C pre-/postemergence test; type: in vivo, Galium aparine
# Summary of the method: as §1
# Goosegrass = assay: Test C pre-/postemergence test; type: in vivo, Eleusin indica
# Summary of the method: as §1
# umbrella sedge = assay: Test C flooded paddy test; type: in vivo, Cyperus difformis; conditions: Flood
# Summary of the method: (§3)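 Flooded 3 cm over soil; compound into paddy water; depth kept constant. Greenhouse 13–15 d.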
# bermudagrass = assay: Test C pre-/postemergence test; type: in vivo, Cynodon dactylon
# Summary of the method: as §1
# barnyardgrass = assay: Test C flooded paddy test; type: in vivo, Echinochloa crus-galli; conditions: Flood
# Summary of the method: as §3
# Italian ryegrass = assay: Test C pre-/postemergence test; type: in vivo, Lolium multiflorum
# Summary of the method: as §1
# [5] = system: common (oilseed) sunflower; assay: Test C pre-/postemergence test; type: in vivo, Helianthus annuus
# Summary of the method: as §1
# [6] = 62 g ai/ha, Preemergence, scale 0 to 100
# [7] = 125 g ai/ha, preemergence, scale 0 (no effect) to 100 (complete control)
# [8] = Postemergence, 125 g ai/ha, scale 0 to 100, 0 no effect, 100 complete control
# [9] = Postemergence, 250 g ai/ha, scale 0 to 100, 0 no effect, 100 complete control
# [10] = Preemergence, 31 g ai/ha, scale 0 to 100 (0 no effect, 100 complete control)
# [11] = preemergence, 250 g ai/ha, scale 0 (no effect) to 100 (complete control)
# [12] = Postemergence, 500 g ai/ha, 0 is no effect, 100 is complete control
# [13] = Preemergence, 125 g ai/ha, 0 no effect, 100 complete control
# [14] = Postemergence, 62 g ai/ha, scale 0 to 100, 0 no effect, 100 complete control
# [15] = 62 g ai/ha, scale 0 to 100 (0 no effect, 100 complete control)
# [16] = 250 g ai/ha, scale 0 to 100, 0 no effect, 100 complete control, 13 to 15 days
smiles,measurement,setting,value
Cn1nc(C(F)(F)F)c(C[S+]([O-])c2ccc(Cl)c[n+]2[O-])c1OCC(F)(F)F (racemic) [Compound 62],Pigweed plant response rating,pigweed; [6],100
same,Pigweed plant response rating,pigweed; [7],100
same,"Plant response rating (0 to 100), Pigweed","pigweed; Postemergence, 31 g ai/ha",0
same,"Plant response rating (0 to 100), Pigweed","pigweed; Postemergence, 62 g ai/ha",0
same,"Plant response rating, Pigweed",pigweed; [8],0
same,"Plant response rating, Pigweed",pigweed; [9],5
same,"Plant response rating, Pigweed",pigweed; [10],80
same,Pigweed plant response rating,pigweed; [11],100
same,"Plant response rating, Foxtail, Giant","giant foxtail; Postemergence, 125 g ai/ha",90
same,"Foxtail, Giant plant response rating",giant foxtail; [12],90
same,"Foxtail, Giant plant response rating",giant foxtail; [13],100
same,"Plant response rating, Foxtail, Giant","giant foxtail; Preemergence, 500 g ai/ha",100
same,Wheat plant response rating,wheat [1]; [6],55
same,Wheat plant response rating,wheat [1]; [7],80
same,"Plant response rating (0 to 100), Wheat","wheat [1]; Postemergence, 31 g ai/ha",0
same,"Plant response rating (0 to 100), Wheat","wheat [1]; Postemergence, 62 g ai/ha",10
same,"Plant response rating, Wheat",wheat [1]; [8],55
same,"Plant response rating, Wheat",wheat [1]; [9],60
same,"Plant response rating, Wheat",wheat [1]; [10],40
same,Wheat plant response rating,wheat [1]; [11],95
same,"Plant response rating, Morningglory","morningglory [2]; Postemergence, 125 g ai/ha",90
same,Morningglory plant response rating,morningglory [2]; [12],100
same,Morningglory plant response rating,morningglory [2]; [13],90
same,"Plant response rating, Morningglory","morningglory [2]; Preemergence, 500 g ai/ha",100
same,"Plant response rating, Crabgrass, Large","crabgrass; Postemergence, 125 g ai/ha",80
same,"Crabgrass, Large plant response rating",crabgrass; [12],90
same,"Crabgrass, Large plant response rating",crabgrass; [13],100
same,"Plant response rating, Crabgrass, Large","crabgrass; Preemergence, 500 g ai/ha",100
same,"Nutsedge, Yellow plant response rating",yellow nutsedge; [6],40
same,"Nutsedge, Yellow plant response rating",yellow nutsedge; [7],70
same,"Plant response rating (0 to 100), Nutsedge, Yellow","yellow nutsedge; Postemergence, 31 g ai/ha",0
same,"Plant response rating, Nutsedge, Yellow",yellow nutsedge; [14],0
same,"Plant response rating, Nutsedge, Yellow",yellow nutsedge; [8],0
same,"Plant response rating, Nutsedge, Yellow",yellow nutsedge; [9],0
same,"Plant response rating, Nutsedge, Yellow",yellow nutsedge; [10],0
same,"Nutsedge, Yellow plant response rating",yellow nutsedge; [11],100
same,Soybean plant response rating,soybean; [6],100
same,Soybean plant response rating,soybean; [7],100
same,"Plant response rating (0 to 100), Soybean","soybean; Postemergence, 31 g ai/ha",30
same,"Plant response rating (0 to 100), Soybean","soybean; Postemergence, 62 g ai/ha",50
same,"Plant response rating, Soybean",soybean; [8],60
same,"Plant response rating, Soybean",soybean; [10],70
same,Morningglory plant response rating,morningglory [3]; [6],90
same,Morningglory plant response rating,morningglory [3]; [7],100
same,"Plant response rating (0 to 100), Morningglory","morningglory [3]; Postemergence, 31 g ai/ha",0
same,"Plant response rating, Morningglory",morningglory [3]; [14],0
same,"Plant response rating, Morningglory",morningglory [3]; [8],0
same,"Plant response rating, Morningglory",morningglory [3]; [9],30
same,"Plant response rating, Morningglory",morningglory [3]; [10],50
same,Morningglory plant response rating,morningglory [3]; [11],100
same,"Plant response rating, Corn","corn; Postemergence, 125 g ai/ha",50
same,Corn plant response rating,corn; [12],70
same,Corn plant response rating,corn; [13],80
same,"Plant response rating, Corn","corn; Preemergence, 500 g ai/ha",90
same,"Plant response rating, Wheat","wheat [4]; Postemergence, 125 g ai/ha",60
same,Wheat plant response rating,wheat [4]; [12],60
same,Wheat plant response rating,wheat [4]; [13],70
same,"Plant response rating, Wheat","wheat [4]; Preemergence, 500 g ai/ha",100
same,Galium plant response rating,catchweed bedstraw; [6],100
same,Galium plant response rating,catchweed bedstraw; [7],100
same,"Plant response rating, Galium",catchweed bedstraw; [10],100
same,Galium plant response rating,catchweed bedstraw; [11],100
same,Goosegrass plant response rating,Goosegrass; [6],100
same,Goosegrass plant response rating,Goosegrass; [7],100
same,"Plant response rating (0 to 100), Goosegrass","Goosegrass; Postemergence, 31 g ai/ha",0
same,"Plant response rating, Goosegrass",Goosegrass; [14],0
same,"Plant response rating, Goosegrass",Goosegrass; [8],10
same,"Plant response rating, Goosegrass",Goosegrass; [9],50
same,"Plant response rating, Goosegrass",Goosegrass; [10],100
same,Goosegrass plant response rating,Goosegrass; [11],100
same,"Plant response rating, Sedge, Umbrella",umbrella sedge; [15],0
same,"Plant response rating, Sedge, Umbrella",umbrella sedge; [16],100
same,Bermudagrass plant response rating,"bermudagrass; 62 g ai/ha, Preemergence, scale 0 to 100 (0 no effect, 100 complete control)",100
same,Bermudagrass plant response rating,bermudagrass; [7],100
same,"Plant response rating (0 to 100), Bermudagrass","bermudagrass; Postemergence, 31 g ai/ha",0
same,"Plant response rating, Bermudagrass",bermudagrass; [14],0
same,"Plant response rating, Bermudagrass",bermudagrass; [8],30
same,"Plant response rating, Bermudagrass",bermudagrass; [9],35
same,"Plant response rating, Bermudagrass",bermudagrass; [10],100
same,Bermudagrass plant response rating,bermudagrass; [11],100
same,"Plant response rating, Barnyardgrass",barnyardgrass; [15],30
same,"Plant response rating, Barnyardgrass",barnyardgrass; [16],70
same,"Ryegrass, Italian plant response rating",Italian ryegrass; [6],85
same,"Ryegrass, Italian plant response rating",Italian ryegrass; [7],90
same,"Plant response rating (0 to 100), Ryegrass, Italian","Italian ryegrass; Postemergence, 31 g ai/ha",0
same,"Plant response rating (0 to 100), Ryegrass, Italian","Italian ryegrass; Postemergence, 62 g ai/ha",0
same,"Plant response rating, Ryegrass, Italian",Italian ryegrass; [8],80
same,"Plant response rating, Ryegrass, Italian",Italian ryegrass; [9],90
same,"Plant response rating, Ryegrass, Italian",Italian ryegrass; [10],70
same,"Ryegrass, Italian plant response rating",Italian ryegrass; [11],100
same,Sunflower plant response rating,[5]; [6],75
same,Sunflower plant response rating,[5]; [7],80
same,"Plant response rating, Sunflower",[5]; [10],50
same,Sunflower plant response rating,[5]; [11],80

# From patent publication US20100298141A1, “SUBSTITUTED PYRIDINE N-OXIDE HERBICIDES” (E. I. DU PONT DE NEMOURS AND COMPANY, priority 2007, published 2010)
